Reference: PubChem BioAssay AID1919015 (Molecular Pharmacology Branch, DTP, NCI, 2023)
Where “and” joins values, the source holds several entries; their conditions need not be identical. Equal values may be shown once.

Test system: OVCAR-5 complex spheroids with HUVEC/MSC, viability, % test/control
Assay: Anticancer human tumor OVCAR-5 cell line growth inhibition [AhR];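 note: spheroids exposed to compounds for 7 days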;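 for viability, T/C: 100% = DMSO vehicle control wells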
Settings: for viability, T/C: stronger effect = lower value
Text: Multicellular complex tumor spheroid response to aryl hydrocarbon receptor antagonists in combination with a variety of drugs and investigational agents in selected tumor cell lines
The current study was undertaken to assess response to aryl hydrocarbon receptor antagonists in combination with standard-of-care drugs and investigational agents in solid tumor complex spheroid models. Complex spheroids include a stromal component modeled by human endothelial cells (HUVEC) and fibroblasts modeled by human mesenchymal stem cells (MSCs). The concentration ranges selected for each drug and investigational agent were based upon clinically achievable concentrations if the clinical Cmax of the agent was known.
Compounds. The drugs and investigational agents: BAY 2416964 (NSC825713), GNF351 (NSC835774), CH-223191 (NSC835775), CPI-455 (NSC825282), aza-TdCyd (NSC777586), decitabine (NSC127716), belinostat (NSC758774), entinostat (NSC756642), pevonedistat (NSC761192), tazemetostat (NSC777109), talazoparib (NSC765396), olaparib (NSC753686), selinexor (NSC780203), nedisertib (M3814, NSC802822), bortezomib (NSC756655), venetoclax (NSC766270), doxorubicin (NSC123127), elimusertib (BAY189344, NSC800525), ceralasertib (AZD6738, NSC777638), TAK-243 (NSC785004), alisertib (NSC759677), etoposide (NSC141540), topotecan (NSC609699), eribulin (NSC707389), gemcitabine (NSC613327), carboplatin (NSC241240), cisplatin (NSC119875), and SN-38 (NSC673596) were obtained from the National Cancer Institute (NCI) Developmental Therapeutics Program Chemical Repository (32). The FDA-approved anticancer drug set is available from the Developmental Therapeutics Program at https://dtp.cancer.gov/organization/dscb/obtaining/available plates.htm. […] The stock solutions were prepared in dimethyl sulfoxide (DMSO, Sigma-Aldrich, St. Louis, MO, cat. D2650), except for the platinum compounds which were prepared in saline (Quality Biological, Gaithersburg, MD, cat. 114-055-101), at 800-fold the tested concentration and stored at -70 degrees C prior to their use. All drugs and investigational agents were tested over a range starting from a high concentration at or near the clinical Cmax and decreasing in half-log increments. If the clinical Cmax for an agent had not been determined, the highest concentration tested was 10 microM (Table 1).
Cell Culture. All cells were maintained in an incubator at 37 degrees C and 5% CO2 with 95% humidity. The PDC lines were cultured according to standard operating procedures established by the NCI PDMR (https://pdmr.cancer.gov). Briefly, all PDCs were thawed and cultured in Matrigel-coated flasks prepared with a working solution of 1X Ham's F-12 nutrient mix, without supplementation (Invitrogen, Waltham, MA, cat. 11765054), 100 U/mL penicillin-streptomycin (Invitrogen, cat. 15140122), and 2.5% Matrigel (Corning Inc., Corning, NY, cat. 354248) for the first three passages. All PDCs were cultured in complete DMEM/F-12 media containing advanced DMEM/F-12 (Invitrogen, cat. 12634028), 4.9% defined fetal bovine serum, heat inactivated (HyClone Laboratories Inc., Logan, UT, cat. SH30070.03HI), 389 ng/mL hydrocortisone (Sigma-Aldrich, cat. H4001), 9.7 ng/mL human EGF recombinant protein (Invitrogen, cat. PHG0313), 23.4 microg/mL adenine (Sigma-Aldrich, cat. A2786), 97.3 U/mL penicillin-streptomycin (Invitrogen, cat. 15140122), 1.9 mM L-glutamine (Invitrogen, cat. 25030081), and 9.7 microM Y-27632 dihydrochloride (Tocris Bioscience, Bristol, United Kingdom, cat. 1254). The PDCs were cultured in complete DMEM/F12 media without 10 microM Y-27632 dihydrochloride for at least two passages prior to the screen. The established cell lines NCI-H1341 and […] were cultured in DMEM/F-12, HEPES (Invitrogen, cat. 11330032), 5% defined fetal bovine serum (HyClone Laboratories Inc., cat. SH30070.03), ITS premix universal culture supplement [insulin (5 microg/mL), transferrin (5 microg/mL), and selenious acid (5 ng/mL)] […]

[1] = curve of first compound, second compound 0.1 µM
[2] = curve of first compound, second compound 0.316 µM
[3] = curve of first compound, second compound 1 µM
[4] = curve of first compound, second compound 3.16 µM
[5] = curve of first compound, second compound 10 µM
[6] = second compound 0.1 µM, first compound 0.0316 µM
[7] = second compound 0.1 µM, first compound 0.1 µM
[8] = second compound 0.316 µM, first compound 0.0316 µM
[9] = second compound 0.316 µM, first compound 0.1 µM
[10] = second compound 1 µM, first compound 0.0316 µM
[11] = second compound 1 µM, first compound 0.1 µM
[12] = second compound 3.16 µM, first compound 0.0316 µM
[13] = second compound 3.16 µM, first compound 0.1 µM
[14] = second compound 10 µM, first compound 0.0316 µM
[15] = second compound 10 µM, first compound 0.1 µM
[16] = second compound 0.1 µM, first compound 0.316 µM
[17] = second compound 0.1 µM, first compound 1 µM
[18] = second compound 0.1 µM, first compound 3.16 µM
[19] = second compound 0.1 µM, first compound 10 µM
[20] = second compound 0.316 µM, first compound 0.316 µM
[21] = second compound 0.316 µM, first compound 1 µM
[22] = second compound 0.316 µM, first compound 3.16 µM
[23] = second compound 0.316 µM, first compound 10 µM
[24] = second compound 1 µM, first compound 0.316 µM
[25] = second compound 1 µM, first compound 1 µM
[26] = second compound 1 µM, first compound 3.16 µM
[27] = second compound 1 µM, first compound 10 µM
[28] = second compound 3.16 µM, first compound 0.316 µM
[29] = second compound 3.16 µM, first compound 1 µM
[30] = second compound 3.16 µM, first compound 3.16 µM
[31] = second compound 3.16 µM, first compound 10 µM
[32] = second compound 10 µM, first compound 0.316 µM
[33] = second compound 10 µM, first compound 1 µM
[34] = second compound 10 µM, first compound 3.16 µM
[35] = second compound 10 µM, first compound 10 µM

With Cn1ncnc1C1c2n[nH]c(=O)c3cc(F)cc(c23)NC1c1ccc(F)cc1 (configuration not stated) + Cc1ccccc1N=Nc1ccc(NC(=O)c2ccnn2C)c(C)c1 the IC50 [1] was > 100 nM, the IC50 [2] was > 100 nM and the IC50 [3] was > 100 nM. For the same compound, the IC50 [4] was > 100 nM, the IC50 [5] was > 100 nM and the viability, T/C (second compound 0.1 µM, first compound 0.000316 µM) was 105%. For the same compound, the viability, T/C (second compound 0.1 µM, first compound 0.001 µM) was 107%, the viability, T/C (second compound 0.1 µM, first compound 0.00316 µM) was 101% and the viability, T/C (second compound 0.1 µM, first compound 0.01 µM) was 96.2%. For the same compound, the viability, T/C [6] was 94.5%, the viability, T/C [7] was 90.9% and the viability, T/C (second compound 0.316 µM, first compound 0.000316 µM) was 108%. For the same compound, the viability, T/C (second compound 0.316 µM, first compound 0.001 µM) was 110%, the viability, T/C (second compound 0.316 µM, first compound 0.00316 µM) was 104% and the viability, T/C (second compound 0.316 µM, first compound 0.01 µM) was 102%. It also gave a viability, T/C [8] of 96.6%, a viability, T/C [9] of 98.8% and a viability, T/C (second compound 1 µM, first compound 0.000316 µM) of 111%. The viability, T/C (second compound 1 µM, first compound 0.001 µM) was 113%, the viability, T/C (second compound 1 µM, first compound 0.00316 µM) was 111% and the viability, T/C (second compound 1 µM, first compound 0.01 µM) was 102%. For the same compound, the viability, T/C [10] was 101%, the viability, T/C [11] was 102% and the viability, T/C (second compound 3.16 µM, first compound 0.000316 µM) was 110%. It also gave a viability, T/C (second compound 3.16 µM, first compound 0.001 µM) of 116%, a viability, T/C (second compound 3.16 µM, first compound 0.00316 µM) of 118% and a viability, T/C (second compound 3.16 µM, first compound 0.01 µM) of 109%. For the same compound, the viability, T/C [12] was 101%, the viability, T/C [13] was 108% and the viability, T/C (second compound 10 µM, first compound 0.000316 µM) was 106%. For the same compound, the viability, T/C (second compound 10 µM, first compound 0.001 µM) was 105%, the viability, T/C (second compound 10 µM, first compound 0.00316 µM) was 102% and the viability, T/C (second compound 10 µM, first compound 0.01 µM) was 105%. The viability, T/C [14] was 102% and the viability, T/C [15] was 102%.
With CC(C)c1c(-c2ccccc2)nc2c(C#N)c[nH]n2c1=O + Cc1ccccc1N=Nc1ccc(NC(=O)c2ccnn2C)c(C)c1 the IC50 [1] was > 10000 nM, the IC50 [2] was > 10000 nM and the IC50 [3] was > 10000 nM. The IC50 [4] was > 10000 nM, the IC50 [5] was > 10000 nM and the viability, T/C [6] was 104%. For the same compound, the viability, T/C [7] was 102%, the viability, T/C [16] was 101% and the viability, T/C [17] was 101%. It also gave a viability, T/C [18] of 104%, a viability, T/C [19] of 106% and a viability, T/C [8] of 105%. It also gave a viability, T/C [9] of 111%, a viability, T/C [20] of 106% and a viability, T/C [21] of 103%. For the same compound, the viability, T/C [22] was 106%, the viability, T/C [23] was 104% and the viability, T/C [10] was 112%. The viability, T/C [11] was 109%, the viability, T/C [24] was 109% and the viability, T/C [25] was 106%. It also gave a viability, T/C [26] of 106%, a viability, T/C [27] of 111% and a viability, T/C [12] of 112%. It also gave a viability, T/C [13] of 112%, a viability, T/C [28] of 111% and a viability, T/C [29] of 108%. For the same compound, the viability, T/C [30] was 111%, the viability, T/C [31] was 114% and the viability, T/C [14] was 108%. The viability, T/C [15] was 110%, the viability, T/C [32] was 108% and the viability, T/C [33] was 107%. For the same compound, the viability, T/C [34] was 104% and the viability, T/C [35] was 104%.
In the case of O=C(C=Cc1cccc(S(=O)(=O)Nc2ccccc2)c1)NO, the viability, T/C (compound 0.0316 µM) is reported as 94.1% and 97.8% and 90.4%, the viability, T/C (compound 0.1 µM) is reported as 93.2% and 88% and 88.8% and the viability, T/C (compound 0.316 µM) is reported as 76.5% and 73.4% and 70.6%. The viability, T/C (compound 1 µM) was 59.4% and 55.6% and 52.8%, the viability, T/C (compound 3.16 µM) was 30.6% and 24.4% and 27.7% and the viability, T/C (compound 10 µM) was 7.78% and 5.16% and 5.95%. The IC50 (curve of compound) was 1410 nM and 1120 nM and 1110 nM.
In the case of COc1cc(Nc2ncc3c(n2)-c2ccc(Cl)cc2C(c2c(F)cccc2OC)=NC3)ccc1C(=O)O + CC(CO)NC(=O)c1cc(-c2ccc(Cl)cc2)nn(-c2cnn(C)c2)c1=O, the IC50 [1] is reported as 1820 nM, the IC50 [2] is reported as 2430 nM and the IC50 [3] is reported as 3710 nM. It also gave an IC50 [4] of 1760 nM, an IC50 [5] of 8330 nM and a viability, T/C [6] of 88.6%. For the same compound, the viability, T/C [7] was 84.8%, the viability, T/C [16] was 62.4% and the viability, T/C [17] was 55.9%. The viability, T/C [18] was 48.1%, the viability, T/C [19] was 43.3% and the viability, T/C [8] was 87.3%. It also gave a viability, T/C [9] of 84.4%, a viability, T/C [20] of 65.7% and a viability, T/C [21] of 60%. It also gave a viability, T/C [22] of 47.9%, a viability, T/C [23] of 38.7% and a viability, T/C [10] of 92.1%. For the same compound, the viability, T/C [11] was 87%, the viability, T/C [24] was 69.5% and the viability, T/C [25] was 60.1%. It also gave a viability, T/C [26] of 54%, a viability, T/C [27] of 41.8% and a viability, T/C [12] of 79.4%. For the same compound, the viability, T/C [13] was 81.8%, the viability, T/C [28] was 65.4% and the viability, T/C [29] was 55%. The viability, T/C [30] was 46.7%, the viability, T/C [31] was 42.4% and the viability, T/C [14] was 75.5%. The viability, T/C [15] was 72.8%, the viability, T/C [32] was 62.9% and the viability, T/C [33] was 59%. It also gave a viability, T/C [34] of 51.8% and a viability, T/C [35] of 50.4%.
